Tests used:
[1] = molecular target: T1, Lysine-α-ketoglutarate reductase (bifunctional lysine-α-ketoglutarate reductase/saccharopine dehydrogenase) (Mus musculus, UniProt Q99K67); test: spectrophotometric enzyme assay (NADPH), partially purified native liver enzyme; assay type: biochemical; conditions: 25 mM Hepes pH 8.0, 30°C, 0.15 mM NADPH, 1 mM dithiothreitol, 10 mM lysine, 2 mM α-ketoglutarate
T1 construct: gene Aass; native bifunctional enzyme, partially purified from liver (15 000 x g supernatant, Blue Trisacryl column)
T1 sequence (Q99K67 28-926): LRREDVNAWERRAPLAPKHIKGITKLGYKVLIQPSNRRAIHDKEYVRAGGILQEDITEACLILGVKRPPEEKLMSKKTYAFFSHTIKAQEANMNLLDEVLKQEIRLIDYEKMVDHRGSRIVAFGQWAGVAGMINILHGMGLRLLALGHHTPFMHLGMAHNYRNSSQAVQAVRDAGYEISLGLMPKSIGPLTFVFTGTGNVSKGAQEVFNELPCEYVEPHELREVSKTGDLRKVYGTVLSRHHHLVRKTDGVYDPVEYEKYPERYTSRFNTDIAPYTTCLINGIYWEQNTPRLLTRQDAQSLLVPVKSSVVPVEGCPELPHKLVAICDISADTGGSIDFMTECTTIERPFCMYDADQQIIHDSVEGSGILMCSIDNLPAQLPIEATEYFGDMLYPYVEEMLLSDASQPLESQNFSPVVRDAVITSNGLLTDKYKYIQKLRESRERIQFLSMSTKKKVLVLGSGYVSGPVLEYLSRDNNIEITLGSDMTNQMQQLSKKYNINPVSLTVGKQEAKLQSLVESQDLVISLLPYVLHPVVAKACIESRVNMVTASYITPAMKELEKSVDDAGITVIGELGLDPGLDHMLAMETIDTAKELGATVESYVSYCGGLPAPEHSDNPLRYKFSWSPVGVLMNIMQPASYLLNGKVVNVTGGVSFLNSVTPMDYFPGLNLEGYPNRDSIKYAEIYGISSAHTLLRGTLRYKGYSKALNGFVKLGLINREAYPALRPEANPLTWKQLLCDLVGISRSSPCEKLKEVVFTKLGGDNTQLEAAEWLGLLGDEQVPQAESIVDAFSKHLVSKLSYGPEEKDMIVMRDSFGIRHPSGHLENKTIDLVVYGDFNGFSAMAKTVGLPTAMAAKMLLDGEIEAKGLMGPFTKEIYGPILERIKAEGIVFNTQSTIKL

[2] = molecular target: T1, Lysine-α-ketoglutarate reductase (bifunctional lysine-α-ketoglutarate reductase/saccharopine dehydrogenase); test: as above; assay type: biochemical

Row | Ki [2] [µM] | SMILES | spectrophotometric enzyme assay (NADPH), partially purified native liver enzyme [1]
1 | – | O=C(O)CC[C@@H](O)C(=O)O [D-2-hydroxyglutarate] | almost no inhibition was observed with D-2-hydroxyglutarate
2 | 700 | O=C(O)CC[C@H](O)C(=O)O [L-2-hydroxyglutarate] | –
